These results are taken from ChEMBL document CHEMBL1201862, “PubChem BioAssay data set” (2004).

Among the test systems are SK-MEL-28; OVCAR-8; NCI-H226; SF-295; NCI-H23; Malme-3M; HCT-116; SF-268; HCT-15; EKVX; ACHN; NCI-H460; CAKI-1; U-251; M14; MOLT-4; UACC-62; OVCAR-4; UO-31; SK-OV-3.
Test in all cases: DTP human tumour cell line panel, 48 h

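1) Cells in 96-well plates. 2) Compound, 48 h, 5 concentrations. 3) Linear interpolation between surrounding doses. 4) Unreached endpoint = highest concentration. GI50 is the concentration that inhibits growth by half.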 Calls of active or inactive are those of the source. Rule as the data show it: active = GI50 up to about 1.1 µM and inactive = higher.

What is called GI50 is the concentration at which growth is held to half of that of the control. As for `C1#Cc2ccccc2OCCOc2ccccc2C#Cc2ccccc2OCCOc2ccccc21`, the GI50 with SK-MEL-28 is 70.8 µM (inactive); in the assay on OVCAR-8, 13.8 µM (inactive); in the assay on NCI-H226, 19.1 µM (inactive); in the assay on SF-295, 21.6 µM (inactive); in the assay on NCI-H23, 16.9 µM (inactive); in the assay on Malme-3M, 28.1 µM (inactive). In addition, the GI50 was 32.7 µM (inactive) in the assay on HCT-116; 19.7 µM (inactive) in the assay with SF-268; more than 100 µM with HCT-15; 26.5 µM (inactive) in the assay on EKVX; 15 µM (inactive) in the assay with ACHN; 24.9 µM (inactive) in the assay on NCI-H460. Also, the GI50 with CAKI-1 was 17.7 µM (inactive); in the assay with U-251 it was 12.5 µM (inactive); in the assay on M14, 30.8 µM (inactive); with MOLT-4, 16.2 µM (inactive); with UACC-62, > 100 µM (inactive); in the assay on OVCAR-4, 10.9 µM (inactive). In addition, the GI50 in the assay with UO-31 is 46.7 µM (inactive).

Consider `O=c1cnn(CCOCP(=O)(O)O)c(=O)[nH]1`, for which the GI50 with SK-MEL-28, with OVCAR-8, with NCI-H226, in the assay with NCI-H23, in the assay with Malme-3M and in the assay with SF-268 was > 100 µM (inactive) in each case. The GI50 with EKVX, in the assay on ACHN, in the assay with NCI-H460, in the assay with CAKI-1, in the assay on U-251 and in the assay on M14 was > 100 µM (inactive) throughout. Further, the GI50 in the assay on MOLT-4 and in the assay with UO-31 was > 100 µM (inactive) in each case.

Consider `COc1ccc2[nH]c(Cl)c(/C=C3/C(=O)Nc4cc(C)c(OC)cc43)c2c1`, for which the GI50 was 9.38 µM (inactive) in the assay on SK-MEL-28; 7.71 µM (inactive) in the assay on OVCAR-8; 1.98 µM (inactive) with SF-295; 5.11 µM (inactive) with NCI-H23; 5.82 µM (inactive) in the assay with Malme-3M; 4.59 µM (inactive) in the assay on HCT-116. For the same compound, the GI50 in the assay on SF-268 is 5.75 µM (inactive); with HCT-15, 2.91 µM; in the assay with SK-OV-3, 2.52 µM (inactive); in the assay with EKVX, 9.53 µM (inactive); in the assay with ACHN, 9.53 µM (inactive); in the assay with NCI-H460 it was 3.36 µM (inactive). The GI50 is 7.35 µM (inactive) in the assay with CAKI-1; 4.88 µM (inactive) with U-251; 3.98 µM (inactive) in the assay on M14; 4.32 µM (inactive) in the assay on MOLT-4; 3.55 µM (inactive) in the assay on UACC-62; 12.2 µM (inactive) in the assay on UO-31.

As to `OCc1nnn2c1CCC2`, the GI50 is > 100 µM (inactive) in the assay with SK-MEL-28; > 100 µM (inactive) in the assay with OVCAR-8; > 100 µM (inactive) with SF-295; > 100 µM (inactive) in the assay with NCI-H23; > 100 µM (inactive) in the assay on Malme-3M; more than 100 µM in the assay on HCT-15. In addition, the GI50 with SK-OV-3, in the assay with EKVX, with ACHN, with NCI-H460, in the assay on U-251 and in the assay with M14 was > 100 µM (inactive) throughout. Moreover, the GI50 with MOLT-4 is > 100 µM (inactive); in the assay with UACC-62 it was > 100 µM (inactive); in the assay on OVCAR-4, 76 µM (inactive); in the assay on UO-31, > 100 µM (inactive).

With `C/C=C1\NC(=O)[C@H]2CSSCCC=C[C@H](CC(=O)N[C@H](C(C)C)C(=O)N2)OC(=O)[C@H](C(C)C)NC1=O`, the GI50 in the assay with SK-MEL-28 is 9.98e-05 µM (active); in the assay with OVCAR-8, 0.000255 µM (active); in the assay on NCI-H226, 0.000123 µM (active); with SF-295, 0.000117 µM (active); in the assay with NCI-H23, 0.000125 µM (active); in the assay with HCT-116, 9.2e-05 µM (active). Further, the 50% growth inhibitory concentration (GI50) in the assay on SF-268 is 0.000318 µM (active); in the assay on HCT-15, 0.0331 µM; in the assay with EKVX, 0.00102 µM (active); with ACHN, 0.00452 µM (active); with NCI-H460 it was 0.00124 µM (active); in the assay on CAKI-1, 0.00159 µM (active). The GI50 was 0.000299 µM (active) in the assay on M14; 0.000134 µM (active) in the assay with MOLT-4; 0.000188 µM (active) with UACC-62; 0.00201 µM (active) in the assay with OVCAR-4; 0.00731 µM (active) in the assay on UO-31.
